# “And” between values parts separate entries of the source, which are not always exact repeats. Identical values can stand only once. Counter-ions that a name gives are not always drawn.
# Tests used:
# 5-HT7 receptor [1] = target: T1, 5-HT7 receptor (Homo sapiens, UniProt P34969); test: Functional antagonist assay: measurement of cAMP formation; assay type: cell-based; details: 5-HT7-expressing AV-12 cells; for Kb: antagonist potency
# T1 construct: expressed in transfected cells
# Method: For cAMP functional assays, the 5-HT7-expressing cells from above are grown in 150 cm^2 flasks and processed essentially as follows. The media is aspirated from the flasks and cells are washed with 1 mL PBS. The cells are released from monolayer with enzyme free cell dissociation solution (Specialtymedia CAT#S-004-B, www.Chemicon.com) and resuspended in complete media. A sample of the cells is counted and the remainder is centrifuged as above for 3 min. The resulting cell pellet is resuspended in PBS at a concentration of 1×10^6 cells per mL and used directly in the cAMP assay as described.
# The 5-HT7 receptor is functionally coupled to a G-protein as measured by the ability of serotonin and serotonergic drugs to stimulate cAMP production in CHO cells transfected with the 5-HT7 receptor. (Ruat, et al., Proceedings of the National Academy of Sciences (USA), 90:8547-8551, 1993.) Accordingly, functional receptor activity can be measured by measuring adenylate cyclase activity using a commercially available cell-based, homogeneous, time resolved fluorescence assay kit, as for example the kit produced by Cisbio-US, Inc. (Bedford, Mass.). Essentially, and using the protocol and reagents provided by the manufacturer, approximately 20,000 human 5-HT7 receptor-expressing AV-12 cells (as described above) are used with test compound dose concentrations in the range described for the binding assay. […] A cAMP standard curve is also run in every experiment. After the assay plates are read in an Envision™ instrument (Perkin-Elmer, Wellesley Mass.), the data are normalized to the standard curve and converted to percent inhibition for data analysis as described above for the receptor binding assay results. The Kb (nM) is calculated as a measure of the antagonist potency of the compound. Preferred compounds are those having percent inhibition>75%. Still other preferred compounds are those having Kb<50 nM.
# 5-HT7 receptor [2] = target: T1, 5-HT7 receptor; test: 5-HT7 receptor affinity: [3H]5-HT radioligand binding assay; details: [3H]5-HT competition, membranes of AV-12 cells
# Method: Membranes for affinity and antagonist activity assays are prepared essentially as follows. AV-12 cells, stably expressing the 5-HT7 receptor, are grown as a monolayer in 5×T-150 flasks in DMEM/F12 (3:1) 5% FBS, 20 mM HEPES, […] geneticin, 50 mg/mL tobramycin. After growing to 90% confluence the media is removed and replaced with Hybritech media (a low calcium version of DMEM/F12 media having 11 mg/L calcium) containing 2% horse serum, […] dextran sulfate, 1 mg/mL nucellin, 1 mg/mL human transferrin (partially iron saturated), 50 mg/mL tobramycin, 20 mM HEPES, […] geneticin, 0.04% pluronic F68. The cells are grown overnight to condition the media. The next morning the conditioned media (−150 mL total) is removed and set aside in a sterile container. The cells are trypsinized and collected in the conditioned media. […]
# To prepare membranes, the above pellets are resuspended in ice-cold Tris buffer (20 mM Tris HCl, pH 7.4 at 23° C., 5 mM EDTA) and homogenized with a Wheaton tissue grinder. […] Protein concentrations are determined by the method of Bradford. […]
# (§1) [^3H] […] The reactions are incubated at room temperature for 3 hr. and then counted in a Trilux Microbeta™ scintillation counter to detect receptor-bound radioligand. Binding data is analyzed by computer-assisted 4 parameter fit analysis (ID Business Solutions Ltd, Guildford, Surrey, UK). […]
# 5-HT1A = target: T2, 5-HT1A (Homo sapiens, UniProt P08908); test: Radioligand binding assay, 5-HT1A subtype
# T2 construct: expressed in transfected cells
# T2 sequence (P08908 1-422): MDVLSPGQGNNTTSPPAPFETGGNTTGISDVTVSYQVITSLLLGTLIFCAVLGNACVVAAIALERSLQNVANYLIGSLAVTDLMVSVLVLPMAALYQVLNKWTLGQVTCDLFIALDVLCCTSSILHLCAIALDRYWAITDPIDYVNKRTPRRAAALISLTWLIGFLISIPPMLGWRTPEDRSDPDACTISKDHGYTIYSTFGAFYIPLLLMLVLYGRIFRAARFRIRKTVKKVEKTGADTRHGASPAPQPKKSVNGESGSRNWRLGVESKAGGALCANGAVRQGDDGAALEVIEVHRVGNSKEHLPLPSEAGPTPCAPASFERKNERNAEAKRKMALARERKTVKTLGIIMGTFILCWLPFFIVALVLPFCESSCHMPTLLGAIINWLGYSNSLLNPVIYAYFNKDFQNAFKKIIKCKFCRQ
# Method: as §1
# (§2) Affinity for other serotonin receptor subtypes as well as for alpha 1 & 2 adrenergic receptors can readily be determined by modification of the above described radioligand receptor binding assay using membranes derived from cells stably expressing the desired receptor subtype including the 5-HT1A, 5-HT1B, and 5-HT1D subtypes, as well as the 5-HT2A, 5-HT2B, 5-HT2C, 5-HT4, 5-HT5, and 5-HT6 receptor subtypes. […]
# 5-HT1B = target: T3, 5-HT1B (Homo sapiens, UniProt P28222); test: Radioligand binding assay, 5-HT1B subtype
# T3 construct: expressed in transfected cells
# Method: as §1, §2
# 5-HT1D = target: T4, 5-HT1D (Homo sapiens, UniProt P28221); test: Radioligand binding assay, 5-HT1D subtype
# T4 construct: expressed in transfected cells
# Method: as §1, §2
# 5-HT2A = target: T5, 5-HT2A (Homo sapiens, UniProt P28223); test: Radioligand binding assay, 5-HT2A subtype
# T5 construct: expressed in transfected cells
# Method: as §1, §2
# 5-HT2B = target: T6, 5-HT2B (Homo sapiens, UniProt P41595); test: Radioligand binding assay, 5-HT2B subtype
# T6 construct: expressed in transfected cells
# Method: as §1, §2
# 5-HT2C = target: T7, 5-HT2C (Homo sapiens, UniProt P28335); test: Radioligand binding assay, 5-HT2C subtype
# T7 construct: expressed in transfected cells
# T7 sequence (P28335 33-458): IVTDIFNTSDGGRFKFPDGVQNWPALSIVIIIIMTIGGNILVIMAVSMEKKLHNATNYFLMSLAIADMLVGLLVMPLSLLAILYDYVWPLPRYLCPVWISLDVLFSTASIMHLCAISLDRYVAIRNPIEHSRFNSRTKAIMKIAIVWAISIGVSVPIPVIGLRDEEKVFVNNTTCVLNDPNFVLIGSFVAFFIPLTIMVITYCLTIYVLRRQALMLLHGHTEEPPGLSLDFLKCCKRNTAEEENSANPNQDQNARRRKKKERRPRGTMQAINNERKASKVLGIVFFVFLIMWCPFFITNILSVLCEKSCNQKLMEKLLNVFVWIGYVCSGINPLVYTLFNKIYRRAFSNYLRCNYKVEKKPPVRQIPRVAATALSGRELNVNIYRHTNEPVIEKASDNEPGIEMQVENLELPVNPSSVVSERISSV
# Method: as §1, §2
# 5-HT4 = target: T8, 5-HT4 (Homo sapiens, UniProt Q13639); test: Radioligand binding assay, 5-HT4 subtype
# T8 construct: expressed in transfected cells
# Method: as §1, §2
# 5-HT5 = target: T9, 5-HT5 (Homo sapiens, UniProt P47898); test: Radioligand binding assay, 5-HT5 subtype
# T9 construct: expressed in transfected cells
# Method: as §1, §2
# 5-HT6 = target: T10, 5-HT6 (Homo sapiens, UniProt P50406); test: Radioligand binding assay, 5-HT6 subtype
# T10 construct: expressed in transfected cells
# Method: as §1, §2
# alpha 1 adrenergic = test: Radioligand binding assay, alpha 1 adrenergic
# Method: as §1, §2
# alpha 2 adrenergic = test: Radioligand binding assay, alpha 2 adrenergic
# Method: as §1, §2
# [3] = tested on: male Harlan Sprague-Dawley rats; test: Animal model of dural plasma protein extravasation (PPE); assay type: in vivo, rat
# Excerpt: The dural plasma protein extravasation model is an established model for migraine. The ability of a test compound to reduce extravasation of plasma proteins into the dura under assay conditions is considered indicative of the compound's ability to reduce or prevent the dural inflammation thought to be symptomatic of migraine. (see Johnson, K. W., et al., Neuroreport, 8 (1997) 2237-2240.)
# To assay compounds for their ability to reduce or prevent dural plasma protein extravasation, male Harlan Sprague-Dawley rats (250-350 g) are anesthetized with sodium pentobarbital (65 mg/kg, i.p.) and placed in a stereotaxic frame (David Kopf Instruments) with the incisor bar set at −2.5 mm. Following a midline sagittal scalp incision, 2 pairs of bilateral holes are drilled through the skull (3.2 mm posterially, 1.8 and 3.8 mm laterally, all coordinates referenced to bregma). […]
# The amount of FITC-BSA for each sample is quantified with a fluorescence microscope (Zeiss) equipped with a grating monochromator, a spectrophotometer, and a computer driven stage. Fluorescence measurements are taken at 25 points in a 5×5 grid in 500 μm steps on each dural sample with an excitation wavelength of approximately 490 nm and emission intensity measured at approximately 535 nm. The mean and standard deviation of the 25 measurements are determined. […]
# T1 sequence (P34969 whole entry): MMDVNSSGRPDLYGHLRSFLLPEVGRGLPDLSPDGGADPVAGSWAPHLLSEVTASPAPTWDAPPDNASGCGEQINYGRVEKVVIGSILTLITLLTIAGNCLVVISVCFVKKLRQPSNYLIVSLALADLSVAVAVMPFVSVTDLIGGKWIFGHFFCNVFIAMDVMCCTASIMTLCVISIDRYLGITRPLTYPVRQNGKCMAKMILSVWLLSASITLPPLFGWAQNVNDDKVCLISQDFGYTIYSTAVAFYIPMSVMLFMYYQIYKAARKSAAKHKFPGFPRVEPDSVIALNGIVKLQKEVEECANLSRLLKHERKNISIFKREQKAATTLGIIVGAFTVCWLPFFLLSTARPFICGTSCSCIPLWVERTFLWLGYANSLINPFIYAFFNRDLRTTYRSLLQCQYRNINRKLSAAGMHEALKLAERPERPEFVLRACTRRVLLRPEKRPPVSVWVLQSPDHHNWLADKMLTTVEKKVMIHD
# T6 sequence (P41595 whole entry, species assumed): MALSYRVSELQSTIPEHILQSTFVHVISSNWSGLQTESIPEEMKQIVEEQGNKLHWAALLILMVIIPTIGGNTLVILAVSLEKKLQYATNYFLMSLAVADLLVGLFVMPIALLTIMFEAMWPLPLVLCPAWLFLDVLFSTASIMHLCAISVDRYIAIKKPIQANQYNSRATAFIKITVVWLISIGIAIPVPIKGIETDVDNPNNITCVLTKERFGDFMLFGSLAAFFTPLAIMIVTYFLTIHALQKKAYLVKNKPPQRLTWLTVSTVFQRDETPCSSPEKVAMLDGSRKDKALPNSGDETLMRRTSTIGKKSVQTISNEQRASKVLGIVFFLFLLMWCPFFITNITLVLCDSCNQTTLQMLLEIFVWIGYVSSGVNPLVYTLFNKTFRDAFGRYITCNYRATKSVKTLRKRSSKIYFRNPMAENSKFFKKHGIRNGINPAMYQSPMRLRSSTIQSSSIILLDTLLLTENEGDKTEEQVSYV
# T10 sequence (P50406 whole entry, species assumed): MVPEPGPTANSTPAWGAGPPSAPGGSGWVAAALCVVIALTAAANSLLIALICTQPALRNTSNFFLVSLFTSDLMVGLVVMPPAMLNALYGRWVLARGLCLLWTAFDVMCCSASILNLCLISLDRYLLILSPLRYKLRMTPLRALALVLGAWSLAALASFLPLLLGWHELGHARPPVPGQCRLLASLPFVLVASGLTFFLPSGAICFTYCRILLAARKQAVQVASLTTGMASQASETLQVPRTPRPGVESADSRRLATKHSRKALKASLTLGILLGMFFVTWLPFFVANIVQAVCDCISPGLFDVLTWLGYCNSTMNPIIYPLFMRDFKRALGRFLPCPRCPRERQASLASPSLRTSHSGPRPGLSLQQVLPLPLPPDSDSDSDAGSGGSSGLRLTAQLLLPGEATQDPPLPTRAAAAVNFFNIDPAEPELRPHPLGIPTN
# T8 sequence (Q13639 whole entry, species assumed): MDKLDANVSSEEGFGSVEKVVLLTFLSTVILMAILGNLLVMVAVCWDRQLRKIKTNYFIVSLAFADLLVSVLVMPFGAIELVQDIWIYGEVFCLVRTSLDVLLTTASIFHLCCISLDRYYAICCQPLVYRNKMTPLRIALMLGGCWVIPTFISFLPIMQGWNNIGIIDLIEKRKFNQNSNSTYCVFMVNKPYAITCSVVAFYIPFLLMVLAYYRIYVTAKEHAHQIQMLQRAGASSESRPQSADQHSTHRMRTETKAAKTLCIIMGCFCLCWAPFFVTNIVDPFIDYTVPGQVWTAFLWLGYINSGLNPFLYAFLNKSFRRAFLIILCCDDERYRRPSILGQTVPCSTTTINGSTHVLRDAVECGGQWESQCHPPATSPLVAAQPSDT
# T9 sequence (P47898 whole entry, species assumed): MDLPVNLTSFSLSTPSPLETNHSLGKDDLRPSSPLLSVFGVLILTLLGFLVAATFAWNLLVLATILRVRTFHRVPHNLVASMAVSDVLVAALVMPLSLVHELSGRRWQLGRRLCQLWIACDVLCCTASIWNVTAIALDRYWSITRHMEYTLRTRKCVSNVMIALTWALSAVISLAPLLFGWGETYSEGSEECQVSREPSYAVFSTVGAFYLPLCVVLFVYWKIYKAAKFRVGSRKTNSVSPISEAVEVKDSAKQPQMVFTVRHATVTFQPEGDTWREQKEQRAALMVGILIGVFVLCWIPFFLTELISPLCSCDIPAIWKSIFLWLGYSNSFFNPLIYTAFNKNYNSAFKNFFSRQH
# T5 sequence (P28223 whole entry, species assumed): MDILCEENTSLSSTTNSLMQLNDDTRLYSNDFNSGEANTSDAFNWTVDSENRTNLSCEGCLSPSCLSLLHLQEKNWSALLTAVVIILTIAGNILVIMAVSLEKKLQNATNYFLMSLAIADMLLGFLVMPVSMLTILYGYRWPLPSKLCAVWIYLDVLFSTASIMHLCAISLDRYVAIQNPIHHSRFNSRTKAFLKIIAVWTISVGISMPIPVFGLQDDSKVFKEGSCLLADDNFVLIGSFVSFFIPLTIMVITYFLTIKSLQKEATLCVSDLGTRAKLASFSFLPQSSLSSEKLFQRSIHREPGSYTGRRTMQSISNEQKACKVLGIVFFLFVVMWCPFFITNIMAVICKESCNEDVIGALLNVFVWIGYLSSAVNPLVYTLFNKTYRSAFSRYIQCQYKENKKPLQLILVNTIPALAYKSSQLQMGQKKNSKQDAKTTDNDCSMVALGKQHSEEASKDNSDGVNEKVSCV
# T4 sequence (P28221 whole entry, species assumed): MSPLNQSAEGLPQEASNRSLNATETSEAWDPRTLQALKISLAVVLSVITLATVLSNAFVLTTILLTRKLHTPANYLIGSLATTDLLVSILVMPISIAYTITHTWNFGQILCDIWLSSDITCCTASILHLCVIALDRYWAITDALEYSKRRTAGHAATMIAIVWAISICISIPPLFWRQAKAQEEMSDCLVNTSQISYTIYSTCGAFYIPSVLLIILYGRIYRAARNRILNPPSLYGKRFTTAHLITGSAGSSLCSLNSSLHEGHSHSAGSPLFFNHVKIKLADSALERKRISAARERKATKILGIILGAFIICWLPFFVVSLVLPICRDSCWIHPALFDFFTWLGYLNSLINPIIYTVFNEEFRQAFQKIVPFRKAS
# T3 sequence (P28222 whole entry, species assumed): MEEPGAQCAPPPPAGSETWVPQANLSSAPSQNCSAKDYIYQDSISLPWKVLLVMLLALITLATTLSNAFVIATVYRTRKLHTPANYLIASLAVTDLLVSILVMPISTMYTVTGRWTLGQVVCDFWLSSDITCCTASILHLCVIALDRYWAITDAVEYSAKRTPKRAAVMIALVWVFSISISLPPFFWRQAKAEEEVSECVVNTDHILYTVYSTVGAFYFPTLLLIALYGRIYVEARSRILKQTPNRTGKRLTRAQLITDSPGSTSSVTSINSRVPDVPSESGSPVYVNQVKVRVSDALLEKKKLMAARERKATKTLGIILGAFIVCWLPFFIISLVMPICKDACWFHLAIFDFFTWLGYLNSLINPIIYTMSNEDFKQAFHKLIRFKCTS
inhibition (5-HT7 receptor [1]),SMILES,antagonist character (5-HT7 receptor [1]),Kb (5-HT7 receptor [1]),Ki (5-HT7 receptor [2]),Ki (5-HT1A),Ki (5-HT1B),Ki (5-HT1D),Ki (5-HT2A),Ki (5-HT2B),Ki (5-HT2C),Ki (5-HT4),Ki (5-HT5),Ki (5-HT6),Ki (alpha 1 adrenergic),Ki (alpha 2 adrenergic),"ratio of extravasation, stimulated side over unstimulated side ([3]; at ID100 of 1 mg/Kg, saline controls about 2.0)","ID100 ([3]; rat dural plasma protein extravasation, route not given)"
about 128%,"CN(CCN1CCN(c2nccnc2-c2ccc(F)cc2)CC1)S(=O)(=O)c1ccc(F)cc1.Cl [Example 4, 4-Fluoro-N-{2-[3′-(4-fluoro-phenyl)-2,3,5,6-tetrahydro-[1,2′]bipyrazinyl-4-yl]-ethyl}-N-methyl-benzenesulfonamide hydrochloride]",full antagonists,~24 nM,,,,,,,,,,,,,,
,"CN(CCN1CCN(c2nccnc2-c2ccc(F)cc2)CC1)S(=O)(=O)c1cn(C)cn1 [Example 17, 1-Methyl-1H-imidazole-4-sulfonic acid {2-[3′-(4-fluoro-phenyl)-2,3,5,6-tetrahydro-[1,2′]bipyrazinyl-4-yl]-ethyl}-methyl-amide hydrochloride]",,,~33.5 nM and 33.5 nM,1500 nM,> 3.58 µM,> 2320 nM,> 7.47 µM,> 6.81 µM,> 8.36 µM,> 6.31 µM,> 6.71 µM,> 5.83 µM,> 1770 nM,> 2.43 µM,,
,"COCc1ccc(-c2nccnc2N2CCN(CCN(C)S(=O)(=O)c3cnn(C)c3)CC2)cc1.Cl [Example 25, 1-Methyl-1H-pyrazole-4-sulfonic acid {2-[3′-(4-methoxymethyl-phenyl)-2,3,5,6-tetrahydro-[1,2′]bipyrazinyl-4-yl]-ethyl}-methyl-amide hydrochloride]",full antagonists,~8.5 nM,~19.4 nM and 19.4 nM,2070 nM,3.24 µM,1270 nM,> 7.47 µM,> 6.81 µM,> 8.36 µM,> 4.12 µM,3.32 µM,> 5.83 µM,2330 nM,> 5.29 µM,about 1.1,1 mg/kg

# Reference: US8048884B2, “Substituted piperazinyl pyrazines and pyridines as 5-HT7 receptor antagonists” (Eli Lilly and Company, priority 2007, dated 2011)
